pIC50: −log10 of the molar value.

The target in this test is PD-L1 (Homo sapiens (Human), UniProt Q9NZQ7). Nature of the test: PD-1/PD-L1 homogeneous time-resolved fluorescence (HTRF) binding assay. Particulars: Cisbio PD1/PD-L1 binding assay kit. From the text: PD-1/PD-L1 homogeneous time-resolved fluorescence (HTRF) detection technology was used to detect the binding ability of the compound to PD-L1.
Sequence of PD-L1 (Q9NZQ7 19-238): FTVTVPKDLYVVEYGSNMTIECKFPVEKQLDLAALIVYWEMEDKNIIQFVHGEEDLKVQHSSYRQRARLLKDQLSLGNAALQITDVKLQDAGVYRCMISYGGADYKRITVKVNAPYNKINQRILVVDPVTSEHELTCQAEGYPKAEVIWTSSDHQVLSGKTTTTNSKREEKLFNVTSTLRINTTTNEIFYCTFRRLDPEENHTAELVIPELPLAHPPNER
PD1/PD-L1 binding assay kit (Cisbio, Cat #63ADK000CPDEC) was used, which includes two proteins, Tag 1-PD-L1 and Tag 2-PD-1, and two antibodies, Anti-Tag1-Eu^3+ and Anti-Tag2-XL 665. Assay principle: Anti-tag1-Eu^3+ is the HTRF donor, and Anti-Tag2-XL 665 is the HTRF acceptor. When Tag 1-PD-L1 and Tag 2-PD-1 interact, the added HTRF donor and the acceptor are close to each other. After the donor receives the excitation energy, it transfers part of the energy to the acceptor, thus producing 665 nm emission signal. When the compound is added to block the PD1/PD-L1 interaction, only 620 nm emission light was detected. The inhibitory effect of the compound was determined by analyzing the ratio of 665 nm/620 nm. Tag 1-PD-L1 was diluted with Diluent buffer (cat #62DLBDDF) to a working concentration of 10 nM, Tag 2-PD-1 was diluted with Diluent buffer to a working concentration of 500 nM, and Anti-Tag1-Eu^3+ was diluted with detection buffer (cat #62DB1FDG) by 1:100, Anti-Tag2-XL 665 was diluted with detection buffer by 1:20, and the test compound was diluted with Diluent buffer to a final concentration of 2×. In a 384-well plate, 2 μL of compound was added to each well, and then 4 μL of Tag 1-PD-L1, 4 μL of Tag 2-PD-1 were added and incubated at room temperature for 15 minutes. 5 μL Anti-Tag1-Eu^3+ and 5 μL Anti-Tag2-XL 665 were added and incubated overnight at room temperature, and detected with BioTek Synergy™ Neo2 Multifunctional Microplate Reader to obtain the ratio of 665 nm/620 nm. The IC50 curve was fitted by GraphPad Prism 5.02.
A general note: Time-resolved FRET reads energy transfer from a long-lived donor to a nearby acceptor.
One may read the pIC50 as −log10 of the IC50, conventionally taken in molar units. In the case of `COc1nc(OCc2cccc(-c3cccc(COc4ccc(CN5CC(O)C(CC#N)C5)c(OC)n4)c3C)c2C)ccc1CN1CC(O)C(CC#N)C1` (stereo not drawn) [Compound 65], the pIC50 was greater than 8.00.

In the case of `CC(=O)NCCNCC(=O)Nc1cnn(Cc2cccc(-c3cccc(Cn4cc(NC(=O)CNCCNC(C)=O)cn4)c3C)c2C)c1` [Compound 25], the pIC50 was less than 6.00.

Regarding `COc1nc(OCc2cccc(-c3cccc(COc4ccc(CNCC(N)=O)c(OC)n4)c3Cl)c2Cl)ccc1CNCC(N)=O` [Compound 73], the pIC50 is greater than 8.00.

As to `COc1nc(OCc2cccc(-c3cccc(COc4ccc(CN5CCCC(C(N)=O)C5)c(OC)n4)c3C)c2C)ccc1CN1CCCC(C(N)=O)C1` (stereo not drawn) [Compound 53], the pIC50 was 6.00 to 7.00.

With `COc1nc(OCc2cccc(-c3cccc(COc4ccc(CNCC(C)C(=O)O)c(OC)n4)c3C)c2C)ccc1CNCC(C)C(=O)O` (stereo not drawn) [Compound 33], the pIC50 was 7.00 to 8.00.

With `COc1nc(OCc2cccc(-c3cccc(COc4ccc(CN5CC(NC(C)=O)C5)c(OC)n4)c3Cl)c2Cl)ccc1CN1CC(NC(C)=O)C1` [Compound 74], the pIC50 is greater than 8.00.

On to `COc1nc(OCc2cccc(-c3cccc(COc4ccc(CNCc5nnn[nH]5)c(OC)n4)c3Cl)c2Cl)ccc1CNCc1nnn[nH]1` [Compound 75], for which the pIC50 is greater than 8.00.

Take `COc1nc(OCc2cccc(-c3cccc(COc4ccc(CN5C[C@@H](O)C[C@H]5C(=O)O)c(OC)n4)c3C#N)c2C)ccc1CN1C[C@@H](O)C[C@H]1C(=O)O` [Compound 56]: the pIC50 was greater than 8.00.

Regarding `COc1nc(OCc2cccc(-c3cccc(COc4ccc(CN5C[C@@H](O)C[C@H]5C(=O)O)c(OC)n4)c3F)c2C)ccc1CN1C[C@@H](O)C[C@H]1C(=O)O` [Compound 66], the pIC50 was greater than 8.00.

With `COc1nc(OCc2cccc(-c3cccc(COc4ccc(CNCCS(N)(=O)=O)c(OC)n4)c3Cl)c2Cl)ccc1CNCCS(N)(=O)=O` [Compound 78], the pIC50 is greater than 8.00.

As to `COc1nc(OCc2cccc(-c3cccc(COc4ccc(CN5CCCC5CC(=O)O)c(OC)n4)c3C)c2C)ccc1CN1CCCC1CC(=O)O` (stereo not drawn) [Compound 39], the pIC50 was 7.00 to 8.00.

Turning to `COc1nc(OCc2cccc(-c3cccc(COc4ccc(CN5CC(O)(C(=O)O)C5)c(OC)n4)c3C)c2C)ccc1CN1CC(O)(C(=O)O)C1` [Compound 42], the pIC50 is greater than 8.00.

On to `COc1nc(OCc2cccc(-c3cccc(COc4ccc(CN(CCO)CCO)c(OC)n4)c3Cl)c2Cl)ccc1CN(CCO)CCO` [Compound 72], for which the pIC50 was greater than 8.00.

Take `COc1nc(OCc2sc(C)c(COc3ccc(CNCCNC(C)=O)c(OC)n3)c2C)ccc1CNCCNC(C)=O` [Compound 40]: the pIC50 was less than 6.00.

With `COc1nc(OCc2cccc(-c3cccc(CO)c3C)c2C)ccc1CNC(=O)C(F)(F)F` [Compound 1, 2,2,2-trifluoro-N-((6-((3′-(hydroxymethyl)-2,2′-dimethyl-[1,1′-biphenyl]-3-yl)methoxy)-2-methoxypyridin-3-yl)methyl)acetamide], the pIC50 was less than 6.00.

Regarding `COC(=O)[C@@H]1C[C@H](O)CN1Cc1ccc(OCc2cccc(-c3cccc(COc4ccc(CN5C[C@@H](O)C[C@H]5C(=O)OC)c(OC)n4)c3Cl)c2Cl)nc1OC` [Compound 48], the pIC50 was 6.00 to 7.00.

In the case of `COc1nc(OCc2cccc(-c3cccc(COc4ccc(CN5CC(CC#N)C5)c(OC)n4)c3C)c2C)ccc1CN1CC(CC#N)C1` [Compound 61], the pIC50 is 7.00 to 8.00.

Regarding `COc1nc(OCc2cccc(-c3cccc(COc4ccc(CNC5CCOC5=O)c(OC)n4)c3C)c2C)ccc1CNC1CCOC1=O` (stereo not drawn) [Compound 64], the pIC50 is 7.00 to 8.00.

On to `COc1nc(OCc2cccc(-c3cccc(COc4ccc(CN5CC[C@@H](NC(C)=O)C5)c(OC)n4)c3C)c2C)ccc1CN1CC[C@@H](NC(C)=O)C1` [Compound 52], for which the pIC50 is 7.00 to 8.00.

Consider `COc1cc(N)cc(OCc2cccc(-c3cccc(CO)c3C)c2C)n1` [Compound 12, (3′-(((4-amino-6-methoxypyridin-2-yl)oxo)methyl)-2,2′-dimethyl-[1,1′-biphenyl]-3-yl)methanol], for which the pIC50 was less than 6.00.

Turning to `Cc1c(CO)cccc1-c1cccc(COc2cccc(N)n2)c1C` [Compound 13, (3′(((6-aminopyridin-2-yl)oxo)methyl)-2,2′-dimethyl-[1,1′-biphenyl]-3-yl) methanol], the pIC50 is less than 6.00.

In the case of `COc1nc(OCc2cccc(-c3cccc(COc4ccc(CNC5(C(=O)O)CC5)c(OC)n4)c3C)c2C)ccc1CNC1(C(=O)O)CC1` [Compound 37], the pIC50 was greater than 8.00.

On to `COc1nc(OCc2cccc(-c3cccc(COc4ccc(CN5CC(C(N)=O)C5)c(OC)n4)c3C)c2C)ccc1CN1CC(C(N)=O)C1` [Compound 63], for which the pIC50 was greater than 8.00.

`COc1nc(OCc2cccc(-c3cccc(COc4ccc(CN5CCCC[C@H]5C(=O)O)c(OC)n4)c3C)c2C)ccc1CN1CCCC[C@H]1C(=O)O` [Compound 26]: the pIC50 is greater than 8.00.

For the compound `COc1nc(OCc2cccc(-c3ccccc3)c2C)ccc1CN` [Compound 23], the pIC50 was 6.00 to 7.00.

Regarding `COc1nc(OCc2cccc(-c3cccc(COc4ccc(CN)c(OC)n4)c3C)c2C)ccc1CN` [Compound 6, ((((2,2′-dimethyl-[1,1′-biphenyl)-3,3′-diyl)bis (methylene))bis (oxo))bis (2-methoxypyridine-6,3-diyl)) dimethylamine], the pIC50 was 7.00 to 8.00.

`COc1cc(OCc2cccc(-c3cccc(CO)c3C)c2C)cc(OC)c1CNCCNC(C)=O` [Compound 10, N-(2-((4-((3′-(hydroxymethyl)-2,2′-dimethyl-[1,1′-biphenyl]-3-yl)methoxy)-2,6-dimethoxybenzyl)amino)ethyl) acetamide]: the pIC50 is less than 6.00.

Regarding `COc1nc(OCc2cccc(-c3cccc(COc4ccc(CNCC(N)C(F)(F)F)c(OC)n4)c3Cl)c2Cl)ccc1CNCC(N)C(F)(F)F` (stereo not drawn) [Compound 82], the pIC50 is 7.00 to 8.00.

Consider `COc1nc(OCc2cccc(-c3cccc(COc4ccc(CN5CC[C@H](NC(C)=O)C5)c(OC)n4)c3C)c2C)ccc1CN1CC[C@H](NC(C)=O)C1` [Compound 54], for which the pIC50 is 7.00 to 8.00.

In the case of `COc1nc(OCc2cccc(-c3cccc(COc4ccc(CN5C[C@@H](O)C[C@H]5C(=O)O)c(OC)n4)c3Cl)c2Cl)ccc1CN1CC[C@H](O)C1` [Compound 58], the pIC50 is greater than 8.00.

As to `COc1nc(OCc2cccc(-c3cccc(COc4ccc(CN5CCC6(CCC(=O)N6)C5)c(OC)n4)c3C)c2C)ccc1CN1CCC2(CCC(=O)N2)C1` (stereo not drawn) [Compound 60], the pIC50 is greater than 8.00.

Regarding `COc1nc(OCc2cccc(-c3cccc(CO)c3C)c2C)ccc1CCN` [Compound 15, (3′-(((5-(2-aminoethyl)-6-methoxypyridin-2-yl)oxo)methyl)-2,2′-dimethyl-[1,1′-biphenyl]-3-yl) methanol], the pIC50 is 6.00 to 7.00.

Consider `COc1nc(OCc2cccc(-c3cccc(COc4ccc(CNC(CO)CO)c(OC)n4)c3Cl)c2Cl)ccc1CNC(CO)CO` [Compound 68], for which the pIC50 is greater than 8.00.

`COc1nc(OCc2cccc(-c3cccc(COc4ccc(CNCCNC(C)=O)c(OC)n4)c3C)c2)ccc1CNCCNC(C)=O` [Compound 28]: the pIC50 is 7.00 to 8.00.

In the case of `COc1nc(OCc2cccc(-n3cnc(COc4ccc(CNCCNC(C)=O)c(OC)n4)c3C)c2C)ccc1CNCCNC(C)=O` [Compound 38], the pIC50 is less than 6.00.

Turning to `COC(=O)[C@@H]1C[C@H](O)CN1Cc1ccc(OCc2cccc(-c3cccc(COc4ccc(CN5C[C@@H](O)C[C@H]5C(=O)OC)c(OC)n4)c3C)c2C)nc1OC` [Compound 41], the pIC50 is 7.00 to 8.00.

These data come from US11787766B2, “Compound having PD-L1 inhibitory activity, preparation method therefor and use thereof” (SHANGHAI ENNOVABIO PHARMACEUTICALS CO., LTD., priority 2017, dated 2023).
